# In patent US20240425607A1, “IL-18BP ANTAGONIST ANTIBODIES AND THEIR USE IN MONOTHERAPY AND COMBINATION THERAPY IN THE TREATMENT OF CANCER” (Compugen Ltd., priority 2023, published 2024):
# Legend:
# [1] = system: MC38ova tumor-bearing mice; assay: Peripheral effects in MC38ova tumor-bearing mice: anti-mIL18BP vs engineered mIL-18; format: in vivo; conditions: single dose, varying concentrations of IL-15
# Description: Nine days pre-inoculum, vials of MC38ova^dim cells were thawed into RPMI media containing 10% FBS, 1% Glutamax, 1% Sodium pyruvate, 1% HEPES, 1% NEAA, 0.01% 2-mercaptoethanol, 1% Penicillin-Streptomycin. Following centrifugation at 300×g for 8 min, cell pellet was resuspended, counted and seeded in a T175 flask. On days −7, −5 and −2, the cells were detached and re-seeded at 6-8*10^6 cells/T175 flask. On the day of inoculum, the cells were detached, centrifuged at 300×g for 10 min, filtered through […] cell strainer and resuspended in RPMI.
# Experiments were performed in C57Bl/6 (female, 6-8 wk, Envigo). Mice were anesthetized with 10% Ketamine and 10% Xylazine mixture injected intraperitoneal. Next, mice were inoculated with MC38ova cells (1.2×10^6) subcutaneously to the right flank in 50 μl/mice.
# At tumor volume of −120 mm^3 (day 9), mice were randomly assigned into treatment groups. Mice were treated with Synagis mouse IgG1, k isotype control 15 mg/kg (IP), anti-mIL18 bp 837 mIgG1 15 mg/kg (IP), PBS (SC), or engineered IL-18 (SC) 0.32 mg/kg. Treatments were injected twice a week for a total of 6 treatments. […] Mice were weighed every week. Mice were bled before the 4th treatment, 4 hours after the 4th treatment, and 24 hours after the 4th treatment. Serum was analyzed for presence of IFNg, TNFα, MCP1, IL6 by Cytometric Bead Array (CBA) Mouse Inflammation Kit (BD Cat. No. 552364). […]
# [2] = system: tumor infiltrating lymphocytes (TILs) co-cultured with MEL624 cells; assay: rhIL-18 titration in TIL:MEL624 co-culture; format: cell-based, human; conditions: 24 hr
# Description: Human MEL624 cells were thawed and grown in DMEM with 10% FBS, 1% Glutamax, 1% Penicillin-Streptomycin Solution and 1% HEPES buffer. The cells were then seeded at 75 k cells/well in a 96 well plate in the assay medium (IMDM with 10% human serum, 1% Glutamax, 1% MEM eagle, 1% Sodium Pyruvate and 1% Penicillin-Streptomycin Solution) and incubated 1 hour in 37° C., 5% CO2 incubator before co-culture with human tumor infiltrating lymphocytes that were previously expanded using known melanoma antigens (TILs). Human TILs were thawed in full TIL media and 75 k cells/well were co-cultured with the MEL624 cells to create an effector: target ratio of 1:1. The co-cultured cells were then treated with rhIL-18 (1.23-300 ng/ml). Cells and all added solutions were prepared in full assay medium to a final volume of 200 μl/well. Plates were incubated for 24 hours in 37° C., 5% CO2 incubator, after which the supernatant was collected for cytokine secretion evaluation. All tests were done in triplicates.
Substance,Spleens of mice treated with IL-15 vs controls [1],Concentration at saturation of IFNγ secretion [2] [ng/mL],Concentration that activates TILs (IFNγ secretion) [2] [ng/mL]
IL-15: recombinant IL15 given to mice as comparator cytokine [reference compound],larger than controls,–,–
rhIL-18: recombinant human IL-18 (R&D systems),–,~100,> 1
